Here are results for six compounds from patent US20250304649A1, “SCN1B MIMETIC PEPTIDES AND USES THEREOF” (Virginia Tech Intellectual Properties, Inc., priority 2022, published 2025).

Entries after “also recorded” stand apart in the source; their conditions may differ. Positions of bridges follow the written chain, without caps; N, C: chain ends. No end group written: not given here.

For experiment [1], the system named is regulated intramembrane proteolysis (RIP) of β1 in 1610β1 cells. Briefly: Western blot of full-length β1 and C-terminal fragment (regulated intramembrane proteolysis) in 1610β1 cells. Type of experiment: cell-based, Chinese hamster. Particulars: for CTF levels on immunoblots, peptide alone: without DAPT. The method, then:
(FIG. 8A) Representative Western blot showing 0.1% DMSO, 50 μM βadp1, 1 μM DAPT, and 50 μM+1 μM DAPT treatments at 6 hours, 24 hours, and 48 hours of treatment. Cells were plated and treated simultaneously, and then lysate was collected at the indicated 6, 24, or 48 hours. Detection of the β1 subunit was done using a c-terminal antibody “Na Channel β1 Subunit (D4Z2N) Rabbit mAb #13950” (Cell Signaling Technologies). This allowed for labeling of both the full length β1 protein (37 kD) and the C-terminal fragment (CTF) (19 kD). […] (FIG. 8B) Quantification of the 37 kD full-length β1 protein at 6, 24, and 48 hours. All results are normalized to DMSO treatment at each timepoint and then shown as a ratio of DAPT+βadp1/DAPT to account for the DAPT treatment in each. […] (FIG. 8C) Quantification of the 19 kD CTF of β1. All results are normalized to DMSO treatment at each timepoint and then shown as a ratio of DAPT+βadp1/DAPT to account for the DAPT treatment in each.
β1 abundance was further examined using Western blotting (WB) at time points of 6, 24, and 48 hours after initial βadp1 treatment. Cells were plated in 35 mm cell culture dishes and treated with 50 μM βadp1 or βS2L solubilized in a final concentration of 0.1% DMSO at the time of plating. The control was DMSO vehicle. To determine whether βadp1 affects the RIP of β1, cells were also treated with 1 μM DAPT, an inhibitor of γ-secretase, to cause an accumulation of the intermediate substrate in the RIP of β1, the CTF. Whole cell lysate was collected and run on stain free gels and transferred to a Polyvinylidene difluoride (PVDF) membrane. Membranes were labeled with an antibody against the c-terminal domain of β1 (Cell Signaling Technologies).
β1 has been reported to undergo a process of […] intramembrane proteolysis (RIP) by BACE1 and γ-secretase, ultimately resulting in the production of a soluble intracellular domain (ICD) that is translocated to the nucleus, with correlated effects on gene transcription. Applicant sought to determine if the β1 targeting peptides affect the RIP process in 1610β1 cells and whether any effect relates to changes in the distribution and abundance of β1 immunolabeling we observed in this model. First, to confirm that β1 underwent RIP in 1610β1 cells, Applicant treated cells with the y-secretase inhibitor DAPT. In the presence of DAPT, it was noted that the 19 kD Carboxyl-Terminal Fragment (CTF) accumulated in Western blots from cells sampled at 6, 24 and 48 hours following initiation of treatment, similar to results published by others in CHL cells and MDA-MB-231 breast cancer cells (FIG. 12A). Without DAPT treatment the 19 kD CTF was virtually non-detectable at any of the time points sampled (FIG. 12A). Next, Applicant co-treated cells with DAPT in the presence of βadp1 or βS2L. […]

The subject of experiment [2] is 1610β1 cells (β1/SCN1B-mediated cell adhesion). Nature of the experiment: Electric cell-substrate impedance sensing (ECIS) of cell adhesion in 1610β1 monolayers. It counts as cell-based, Chinese hamster. As to conditions: for resistance compared to vehicle over the entire time course / resistance compared to DMSO vehicle at 5 hours / resistance compared to DMSO vehicle at (up to) 20 hours / resistance compared to DMSO vehicle at 40 hours: 10 μM; for resistance compared to vehicle over the entire time course: 40 hour time course; for resistance compared to DMSO vehicle at 5 hours / resistance compared to DMSO vehicle at (up to) 20 hours / resistance compared to DMSO vehicle at 40 hours: single treatment at plating; for acute de-adhesion effects: dimerized peptides, ECIS time course. The text has this: FIGS. 3A-3E show βadp1 binding and identification of βadp1 derived smaller peptide fragments with similar function. […] Positive and negatively charged moieties on the adhesion surface of the β1 Ig loop are shown in red and blue (as represented in greyscale), respectively. […] Peptides towards the carboxyl terminus of βadp1, especially those incorporating hydrophobic leucine residues, show the most adhesion reducing activity. Based on the ECIS time course data, and predictions from molecular modeling of likely binding in the hydrophobic pocket β1/SCN1B Ig domain binding surface, the sequence LQLEED (SEQ ID NO: 4) was selected as a short peptide candidate drug molecule.
In this Example to evaluate the long term effects (effects after more than 2 hours post treatment) of βadp1 and derivatives on β1 cell adhesion, electric cell-substrate impedance sensing (ECIS) was employed. ECIS measures the impedance of electric current. 4000 Hz is the recommended frequency for measuring changes in impedance between cells, assaying intercellular adhesion levels, as mediated by β1. […] To assist in focusing on the active sequence of βadp1 used to create the other peptides in this disclosure, ECIS experiments were completed using multiple small sequences as shown in FIGS. 3A-3E. From this, and in combination with the in silico experiments, it was determined that LQLEED (SEQ ID NO: 4) was the optimal sequence. […] For the other dimerized peptides, ERF residues were included on the c-terminal end of the LQLEED (SEQ ID NO: 4) peptide because residue R85 in SCN1B is associated with atrial fibrillation. Cells were plated in 8 well plates lined with 40 electrodes and treated with a 10 μM concentration of βadp1 in a final concentration of 0.1% DMSO at the time of plating or DMSO vehicle.
βadp1 is a peptide mimetic of a 20 amino acid (aa) sequence from the immunoglobulin (Ig) domain of the voltage gated sodium channel (VGSC) β1 subunit involved in adhesive interactions. […] Applicant synthesized a dimerized variant of the 20 aa βadp1 (FIG. 1) and tested it in monolayers of 1610 Chinese Hamster Lung cells stably expressing the β1 subunit (1610ß1) using electric cell substrate impedance sensing (ECIS) to determine whether it acted as an agonist that promoted β1-mediated adhesion.

Experiment [3] concerns β1 protein (SCN1B) in 1610β1 cells. Briefly: Confocal immunofluorescence of β1 abundance and Biotin-βadp1 uptake in 1610β1 cells. Type of experiment: cell-based, Chinese hamster. Particulars: for upregulation of β1 protein 48 hours after treatment: 50 μM; for upregulation of β1 protein 48 hours after treatment / β1 abundance (immunolabeling) at 48 hours compared to DMSO treated cells: FIG. 7; for β1 abundance (immunolabeling) at 48 hours compared to DMSO treated cells: 10 μM; for upregulation of β1 protein 48 hours after treatment / β1 abundance (immunolabeling) at 48 hours compared to DMSO treated cells / β1 abundance at cell-cell borders / in the membrane: 48 hours; for β1 abundance at cell-cell borders / in the membrane: FIG. 7D-7E. Here is the method: Cells were then allowed to grow for 1-48 hours, after which they were fixed with 4% paraformaldehyde. […] White scale bar: 10 μm
FIGS. 7A-7D show 1610β1 cells treated for 48 hours with 10 μM concentrations of DMSO or βadp1 derived peptides (FIG. 7A) 0.1% DMSO, (FIG. 7B) βadp1, (FIG. 7C) LQLEED (SEQ ID NO: 4), (FIG. 7D) βS2L.
Next, the abundance of β1 protein was evaluated using confocal microscopy immunofluorescence (IF). 1610β1 cells were plated in 12 well plates on lysine coated coverslips and allowed to grow for 48 hours. Cells were then treated with a 50 μM concentration of βadp1, βS2L, βS2C, or LQLEED (SEQ ID NO: 4) or βadp1 conjugated with a Biotin molecule (B-βadp1) solubilized in a final concentration of 0.1% dimethyl sulfoxide (DMSO). Controls for the experiment were cells treated with only 0.1% DMSO vehicle. Cells were then fixed in 4% paraformaldehyde and stained with an antibody against the extracellular domain of β1 (Virginia Tech) and a streptavidin-Alexa647 (Invitrogen) conjugate to stain B-βadp1.
Applicant undertook immunolabeling studies to further probe the effect of the mimetic peptides on 1610β1 cells over time courses of up to 2 days. […] Prompted by this observation we examined what effects of 10 μM concentrations of LQLEED (SEQ ID NO: 4) and βS2L on β1 immunolabeling at or 48 hours over the same time course.

Experiment [4] relates to Isolated guinea pig hearts. As to conditions: cited from earlier work.
The subject of experiment [5] is β1-mediated adhesion and gap junction-associated VGSC activity in cultured cells. Particulars: 1 to 2 hours; cited from earlier work.
Experiment [6] deals with parental cell line of 1610 cells expressing negligible levels of β1. Briefly: ECIS in parental 1610 cells. Type of experiment: cell-based, Chinese hamster.
For experiment [7], the system named is 1610β1 cells (β1/SCN1B-mediated cell adhesion). Briefly: Electric cell-substrate impedance sensing (ECIS) of cell adhesion in 1610β1 monolayers. It counts as cell-based, Chinese hamster.
[8] abbreviates: isolated guinea pig hearts treated acutely.

On to `C[C@H](NC(=O)Cc1cc(F)cc(F)c1)C(=O)N[C@H](C(=O)OC(C)(C)C)c1ccccc1` [DAPT, reference compound], for which the “accumulation of the 19 kD C-terminal fragment (CTF) of β1 with DAPT” value in experiment [1] (1 μM DAPT, 6, 24 and 48 hours, versus no DAPT) is listed as “accumulation of the 19KD CTF; also recorded: accumulated”.

For the compound “CLQLEEDERF-G-LQLEEDERFC (CLQLEEDERFGLQLEEDERFC; disulfide 1-21 (inferred)) [βS2C, dimeric peptide with NT and CT cysteines, cyclizable via disulfide bonding]”, in experiment [2], the “resistance compared to vehicle over the entire time course” value is reported as “increased resistance throughout the time course”, the “resistance compared to DMSO vehicle at (up to) 20 hours” value is “increased resistance” and the acute de-adhesion effects entry was “no acute de-adhesion effects detectable”. Besides, in experiment [2] (5 hours), the “resistance compared to DMSO vehicle at 5 hours” value was “increase resistance; also recorded: significantly elevated over vehicle control”. Further, in experiment [3], the “upregulation of β1 protein 48 hours after treatment” value is on record as “upregulation of β1 protein”.

Regarding FVKILRYENEVLQLEEDERF [βadp1], in experiment [2] (5 hours), the “resistance compared to DMSO vehicle at 5 hours” value is listed as “decrease resistance”. In addition, in experiment [2], the “resistance compared to DMSO vehicle at (up to) 20 hours” value is given as “decrease resistance; also recorded: significantly decreased resistance; also recorded: significant decreases in resistance” and the “resistance compared to DMSO vehicle at 40 hours” value is given as “no significant difference; also recorded: effects of βadp1 had reversed; also recorded: no longer significantly below those of controls”. Moreover, the ECIS-assayed adhesion entry in experiment [2] (10 and 100 μM treatments) is “significant decreases in ECIS-assayed adhesion”. Besides, the “normalized resistance of monolayers (marker of cell adhesion mediated by β1/SCN1B) relative to control” value in experiment [2] (1610 cells exogenously expressing β1/SCN1B, over 20 hours, FIG. 3D) was “significantly reduces normalized resistance”. Moreover, in experiment [3], the “β1 abundance (immunolabeling) at 48 hours compared to DMSO treated cells” value (from here on “β1 abundance … compared to DMSO treated cells”) is given as “increase in β1 abundance”. The “β1 levels at 48 hours” value in experiment [3] (cells monitored up to 48 hours from the initial treatment) is reported as “notably increased”. Moreover, the “regulated intramembrane proteolysis (RIP) of β1” value in experiment [1] (inferred from CTF accumulation with DAPT) was “increasing the amount of RIP that β1 undergoes; also recorded: increases the RIP of β1”. For the same compound, the “CTF levels on immunoblots, peptide alone” value in experiment [1] is recorded as “Neither βadp1 or βS2L alone appeared to have consistent effects”. Besides, the “perinexal adhesion at early time-points” value in experiment [4] (<2 hours) is “perinexal de-adhesion”. In experiment [4] (setting [8]), the conduction velocity result is “decreased conduction velocity” and the perinexus width entry is “widened perinexus”. Further, in experiment [5], the “gap junction-associated VGSC activity” value is given as “inhibits” and the β1-mediated adhesion entry is “inhibits β1-mediated adhesion”.

Take “FVKILRYENEVLQLEEDERGFVKILRYENEVLQLEEDER [Db1-βadp1, dimerized version of βadp1 with a glycine linker]”: the “intercellular resistance in parental 1610 cells” value in experiment [6] is “did not result in increased intercellular resistance”. For the same compound, the “concentration dependence of the increase in resistance” value in experiment [7] (100 μM versus 50 μM, 24 hours) is listed as “concentration dependent effect; also recorded: higher for 100 μM Db1-βadp1 versus the 50 μM treatment”. Besides, the “resistance compared to DMSO/vehicle control” value in experiment [7] (Db1-βadp1 100 μM and 50 μM, over 24 hours of treatment, n=2, FIG. 4) was “increased resistance”.

As to “LQLEED [short monomeric peptide towards the carboxyl terminus of βadp1]”, the “resistance compared to DMSO vehicle at 5 hours” value in experiment [2] (5 hours) is reported as “decrease resistance; also recorded: decreased levels of intercellular resistance”. Also, the “resistance compared to DMSO vehicle at (up to) 20 hours” value in experiment [2] is on record as “decreased resistance; also recorded: significant decreases in resistance”. In experiment [3], the “β1 abundance … compared to DMSO treated cells” value was “increase in β1 abundance; also recorded: appeared to increase” and the “β1 abundance at cell-cell borders / in the membrane” value is on record as “occasional evidence of increased intensity of immunolabeling signal at cell borders”.

In the case of “LQLEEDERF-G-LQLEEDERF (LQLEEDERFGLQLEEDERF) [βS2L]”, in experiment [2], the “resistance compared to vehicle over the entire time course” value is on record as “increased resistance throughout the time course; also recorded: significantly increasing resistance”, the “resistance compared to DMSO vehicle at (up to) 20 hours” value is reported as “increase resistance”, the “resistance compared to DMSO vehicle at 40 hours” value is “continues to increase resistance” and the acute de-adhesion effects entry is listed as “no acute de-adhesion effects detectable”. In experiment [2] (5 hours), the “resistance compared to DMSO vehicle at 5 hours” value was “increase resistance; also recorded: significantly elevated over vehicle control” and the “resistance relative to that after the LQLEED inhibitory monomer” value was 5-6 fold. Besides, in experiment [3], the “β1 abundance … compared to DMSO treated cells” value is “increase in β1 abundance; also recorded: cell-wide increases in β1 immunolabeling”, the “upregulation of β1 protein 48 hours after treatment” value was “upregulation of β1 protein” and the “β1 abundance at cell-cell borders / in the membrane” value is on record as “increase the 1 abundance at cell-cell borders; also recorded: increase the β1 present in the membrane; also recorded: distinctive increase in signal at cell borders”. Further, the “CTF levels on immunoblots, peptide alone” value in experiment [1] is given as “Neither βadp1 or βS2L alone appeared to have consistent effects”.
